In brackets after ≈: the same amount, converted by molar mass.
Key:
[1] = target: T1, HRP (Armoracia rusticana, UniProt P00433); assay: IHC staining of FFPE human tissues and Her2 control cell lines, Envision+ Dual link HRP visualization, DAB as reference; set-up: species or system horse radish; conditions: for colour of IHC stain / stain intensity and crispness compared with DAB: tested in 0.4 to 1 mM; for stain intensity and crispness compared with DAB: low and medium expression targets; for staining in the high expression range: very high expression targets, trained observers
T1 construct: purchased Dako K4061
T1 sequence (P00433 31-338): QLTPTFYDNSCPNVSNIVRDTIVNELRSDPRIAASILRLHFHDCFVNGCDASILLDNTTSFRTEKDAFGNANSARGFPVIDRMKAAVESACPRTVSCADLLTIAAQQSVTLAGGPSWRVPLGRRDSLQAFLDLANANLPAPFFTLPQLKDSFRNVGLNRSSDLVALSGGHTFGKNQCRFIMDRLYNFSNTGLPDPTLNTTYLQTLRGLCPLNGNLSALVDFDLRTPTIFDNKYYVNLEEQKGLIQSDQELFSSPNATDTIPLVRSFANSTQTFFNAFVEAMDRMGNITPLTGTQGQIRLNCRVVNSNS

[2] = Solubility in substrate buffer as function of percentage of NMP; format: physicochemical
Procedure: Only Compound 6 having a piperazine amide stands out by absorbing at 536 nm, around 5 nm above the esters comprising Compounds 2, 13, 14 and 15 all with abs max within 531-533 nm. […] Addition of NMP to the buffer in all cases increased chromogen solubility. See result table below of the solubility of 2, 13 and 15 as function of percentage of NMP as organic co solvent, 0% representing neat aqueous buffer 50 mM imidazole: HCl, pH 6.8, 3% and 10% said percent.

[3] = Mutagenicity test
[4] = target: T1, HRP; assay: Fast CISH on human tissue slides, antiFITC-HRP; set-up: species or system horse radish; conditions: 1 mM in substrate buffer pH 6.8, 0.003% hydrogen peroxide, 5 min
[5] = target: T1, HRP; assay: Triple immunohistochemical staining (Ki67, CD20, Her2) on Dako Autostainer; set-up: species or system horse radish; conditions: 0.5 mM conjugate, 50 mM imidazole:HCl pH 6.8, 0.003% hydrogen peroxide, 2.5% NMP, 5 min
Procedure: The exemplary triple staining method employed DAB in combination with Compounds 2 and 8, on a Dako Autostainer at room temperature. The steps of the method included: • 1. Blocking of endogenous peroxidase with peroxidase block (Dako S2023), 5 min. • 2. antiKi67 RTU antibody (Dako IR626), 20 mm • 3. Envision+dual Link HRP (Dako K4061), 20 min • 4. DAB (Dako K3468) 5 min. • 5. HRP quenching with peroxidase block (Dako S2023) with addition of 5 mg/mL alphacyano cinnamic acid, 5 min. • 6. antiCD20cy RTU antibody (Dako IR604), 20 min • 7. Envision+dual Link HRP (Dako K4061), 20 min • 8. 0.5 mM compound 2 in 50 mM imidazole: HCl pH 6.8, 0.003% hydrogen peroxide and 2.5% NMP, 5 min. • 9. HRP quenching with peroxidase block (Dako S2023) with addition of 5 mg/mL alphacyano cinnamic acid, 5 min. • 10. antiHer2 (Dako vial ST301 from HercepTest kit SK001) 20 min. • 11. Envision+dual Link HRP (Dako K4061), 20 min • 12. 0.5 mM compound 8 in 50 mM imidazole: HCl pH 6.8, 0.003% hydrogen peroxide and 2.5% NMP, 5 min. • 13. Counter stain with haematoxylin (Dako S3301)

[6] = UV-VIS absorbance maxima of chromogenic conjugates and mixtures; format: physicochemical
Procedure: “Spectrally narrow” refers to a chromogen having less that 50 nm broadness at its maximum absorbance at half peak height by UV-VIS spectroscopy, measured in +99% water at pH, 6-8 in 10 μM concentration. A “magenta chromogen” is a spectrally narrow chromogen with peak absorbance between 525 and 530 nm, measured in +99% water at pH, 6.0-8.0 in 10 μM concentration. A “greenish-yellow chromogen” is a chromogen with peak absorbance below 475 nm and less than 10% absorbance at 530 nm or above relative to the peak absorbance, measured in +99% water at pH, 6.0-8.0 in 10 μM concentration. A “yellow chromogen” is a chromogen with peak absorbance below 505 nm and less than 10% absorbance at 530 nm or above relative to the peak absorbance, measured in +99% water at pH, 6.0-8.0 in 10 μM concentration. A “cyan chromogen” is a chromogen having maximal absorbance above 615 nm and less than 10% relative absorbance at any wavelength between 530 and 400 nm relative to the peak absorbance, measured in +99% water at pH, 6.0-8.0 m 10 μM concentration. An “orange chromogen” is a “spectrally narrow” chromogen that has maximum absorbance between 495 and 520 nm, measured in +99% water at pH, 6-8 in 10 μM concentration. A “dichroic chromogen” is a chromogen that has at least two absorbance maxima, separated by a local minimum at least 50 nm wide and one further global minimum between 390 and 700 nm measured in water between pH 6 and 8.

[7] = target: T1, HRP; assay: Tissue staining with mixtures of chromogens in chromogen buffer; set-up: species or system horse radish

| SMILES | IHC staining performance of Rhodamine 6G derivatives with different 4-hydroxy cinnamic acid derivatives ([1]; peroxidase substrate moiety varied) | colour of IHC stain [1] | stain intensity and crispness compared with DAB [1] | staining in the high expression range [1] | solubility ([2]; imidazole:HCl buffer (substrate buffer) with 3% NMP, aqueous buffer, 3% NMP in 50 mM imidazole:HCl pH 6.8) | solubility ([2]; imidazole:HCl buffer (substrate buffer) with 10% NMP, aqueous with cosolvent or surfactant or cyclodextrin, 10% NMP in 50 mM imidazole:HCl pH 6.8) | solubility ([2]; imidazole:HCl buffer (substrate buffer), 0% NMP, neat aqueous buffer 50 mM imidazole:HCl pH 6.8) | mutagenicity [3] | CISH signals [4] | stain produced in triple staining [5] | Absp nm (max) [6] | intensity compared with DAB ([7]; 0.6 mM in 15 mM imidazole pH 6.8, 4% NMP, 0.1% NP40-Nonidet, 0.01% Benzalkonium chloride, 0.03% hydrogen peroxide) | colour of stain of compound alone ([7]; alone) |
| --- | --- | --- | --- | --- | --- | --- | --- | --- | --- | --- | --- | --- | --- |
| CC/N=c1\cc2oc3cc(NCC)c(C)cc3c(-c3ccccc3C(=O)OCC(=O)NCCOCCOCCNC(=O)/C=C/c3ccc(O)cc3)c-2cc1C [Compound 2, Rhodamine 6G-L12-Cou] | both strong and crisp stains with no background | red stains | fully matched DAB in intensity and crispness | performed better and more dynamically in the high expression range | 1200 µM (≈ 899 µg/mL) | 3600 µM (≈ 2700 µg/mL) | 1000 µM (≈ 749 µg/mL) | does not have significant mutagenicity | large and distinct dots in both Tonsil tissues | red Her2 membrane stain | 531 nm | matching DAB in intensity in the low range | changed from bright magenta at low intensities toward more full reds at higher intensities |
| CCN(CC)c1ccc2c(-c3ccccc3C(=O)N3CCN(CC(=O)NCCOCCOCCNC(=O)/C=C/c4ccc(O)cc4)CC3)c3ccc(=[N+](CC)CC)cc-3oc2c1 [Compound 8, RhodamineB-Pip-L12-Cou] |  | slightly bluish purple stains | more than matched DAB in intensity and crispness |  |  |  |  |  |  | purple CD20 membrane stain | 567 nm |  |  |
| Nc1ccc(-c2ccc(N)c(N)c2)cc1N [DAB, 3,3′-diaminobenzidine, reference compound] |  |  |  | tended to over-stain and blackout morphological details |  |  |  |  |  | brown ki67 nuclear stain |  |  |  |

Reference: US10526646B2, “Chromogenic peroxidase substrates” (Dako Denmark A/S, priority 2015, dated 2020)
